In test [1] the target is T1, Avi-KRAS G12D (1-169) GppNHp/RAF1 RBD-3xFLAG (52-151) (Homo sapiens, UniProt P01116, G12D).
T1 construct: 100 nM Avi-KRAS G12D (1-169) GppNHp
Description: RAS-effector PPI HTRF disruption assay, Raf1-GppNHp-KRAS G12D. The test is classed as biochemical. The essentials:
(§1)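 HTRF read (ex 320, em 615 nm) after 1 h compound/protein-complex incubation plus 1 h with detection reagents, room temperature, in Tris pH 7.5, 5 mM MgCl2, 1 mM TCEP, 10% DMSO. Complexes: WT and G12V RAF1 at 50 nM, G12D RAF1 100 nM, G12D/Q25A-PI3KCA 375 nM. Compounds 100-0.02 μM; IC50 from % activity vs DMSO.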
On the technique in general: Time-resolved FRET reads energy transfer from a long-lived donor to a nearby acceptor.

Test [2] addresses T2, Avi-KRAS G12D/Q25A (1-169) GppNHp/3xFLAG-PI3KCA (157-299) (Homo sapiens, UniProt P01116, G12D/Q25A).
T2 construct: 375 nM Avi-KRAS G12D/Q25A (1-169) GppNHp
Kind of test: RAS-effector PPI HTRF disruption assay, PI3KCA-GppNHp-KRAS G12D/Q25A. The test is classed as biochemical. The procedure: A protein:protein interaction (PPI) Homogeneous Time Resolved Fluorescence (HTRF) assay was used to determine the effectiveness of compounds of the present disclosure in disrupting KRAS protein and effector (RAF1 or PIK3 CA) binding.
The HTRF assay used the following reagents and proteins: (i) 375 nM Avi-KRAS G12D/Q25A (1-169) GppNHp/3×FLAG-PI3KCA (157-299); (ii) 100 nM Avi-KRAS G12D (1-169) GppNHp/RAF1 RBD-3×FLAG (52-151); (iii) 50 nM Avi-KRAS G12V (1-169) GppNHp/RAF1 RBD-3×FLAG (52-151); (iv) 50 nM Avi-KRAS WT (1-169) GppNHp/RAF1 RBD-3×FLAG (52-151); and (v) 35 nM Avi-PI3K RBD CA-3×FLAG; Assay Buffer: 50 mM Tris pH 7.5, 100 mM NaCl, 5 mM MgCl2, 0.1% BSA, 0.01% Tween, 1 mM TCEP, 10% DMSO; Bead Buffer: 50 mM Tris pH 7.5, 0.01% Tween 20; Assay volume: 20 μL (384 well plate-low volume format); and Compound titration: 100-0.02 μM, 3× dilution series.
The HTRF assay employed the following protocol:
Compounds were dispensed in assay plate (384-well, Grenier Bione #784075) using Echo (model 555) with dose response settings: 200 nL final volume, titration from 100 μM as a 10-point dilution series. Protein mix was prepared in assay buffer, and dispensed on plates, 10 μL per well, then incubated for 1 h at room temperature, with 700 rpm shaking. Reagents mix was prepared and dispensed on plates, 10 μL per well, then incubated for 1 h at room temperature, with 700 rpm shaking.
Plates were analyzed on an Envision plate reader using the following setting: Excitation 320 nm, Bandwidth […]; Emission 615 nm, Bandwidth […], Gain 100%, Flashes 100, Lag 60 μs. Data was reported as percentage of activity, with DMSO as 100%. Data was plotted and analyzed using Prism 8. The SPR Kd, biochemical Raf1-KRAS G12D/G12V/WT-GppNHP and PI3KCA-KRAS G12D/Q25A-GppNHp disruption assay IC50 of selected compounds described herein are shown in Table 4.

The target of test [3] is T3, Avi-KRAS G12V (1-169) GppNHp/RAF1 RBD-3xFLAG (52-151) (Homo sapiens, UniProt P01116, G12V).
T3 construct: 50 nM Avi-KRAS G12V (1-169) GppNHp
T3 sequence (P01116 1-169 isoform P01116-2 G12V): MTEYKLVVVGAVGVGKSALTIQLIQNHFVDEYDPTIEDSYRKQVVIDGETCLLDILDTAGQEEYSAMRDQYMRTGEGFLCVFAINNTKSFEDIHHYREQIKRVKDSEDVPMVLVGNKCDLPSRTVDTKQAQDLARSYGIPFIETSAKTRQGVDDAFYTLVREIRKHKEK
Description: RAS-effector PPI HTRF disruption assay, Raf1-GppNHp-KRAS G12V. It is filed as biochemical. In outline:
as §1

For test [4], the target named is T4, Avi-KRAS WT (1-169) GppNHp/RAF1 RBD-3xFLAG (52-151) (Homo sapiens, UniProt P01116).
T4 construct: 50 nM Avi-KRAS WT (1-169) GppNHp
T4 sequence (P01116 1-169 isoform P01116-2): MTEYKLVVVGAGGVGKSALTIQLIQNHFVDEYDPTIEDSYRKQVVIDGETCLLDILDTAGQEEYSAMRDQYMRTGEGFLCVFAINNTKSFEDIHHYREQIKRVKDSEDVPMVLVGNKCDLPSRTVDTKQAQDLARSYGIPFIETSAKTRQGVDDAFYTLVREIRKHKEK
Description: RAS-effector PPI HTRF disruption assay, Raf1-GppNHp-KRAS WT. The test is classed as biochemical. The essentials: as §1

For test [5], the system named is pERK in GP2d cells (KRAS G12D). Kind of test: Cell-based pERK HTRF assay in GP2d cell. The note with it: 60 min incubation. The essentials:
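GP2d cells (KRAS G12D) in DMEM/10% FBS were seeded the day before and exposed to compounds for 60 min in 0.25% DMSO. The 9-point curve started at 1 μM with half-log steps. Lysates were read for pERK by HTRF (Eu cryptate/d2 antibodies) after 4–24 h at room temperature, with excitation at 320 nm and emission at 615 nm.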

Where two headings read alike, the source gives them in different places.

T2 sequence (P01116 1-169 isoform P01116-2 G12D/Q25A): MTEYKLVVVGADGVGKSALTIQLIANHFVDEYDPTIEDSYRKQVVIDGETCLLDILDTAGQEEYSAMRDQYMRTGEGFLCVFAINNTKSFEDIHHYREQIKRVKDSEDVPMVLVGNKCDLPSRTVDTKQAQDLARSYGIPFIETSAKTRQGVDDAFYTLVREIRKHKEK
T1 sequence (P01116 1-169 isoform P01116-2 G12D): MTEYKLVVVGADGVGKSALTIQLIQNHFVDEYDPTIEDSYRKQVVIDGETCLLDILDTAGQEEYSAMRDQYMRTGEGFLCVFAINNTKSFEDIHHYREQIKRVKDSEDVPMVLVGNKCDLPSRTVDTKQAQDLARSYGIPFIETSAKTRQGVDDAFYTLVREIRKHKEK

As for `C[C@H]1NCC[C@H]1Oc1nc(OCC23CCCN2C[C@H](F)C3)nc2c(F)c(-c3ccc(F)c4sc(N)nc34)c(C(F)(F)F)cc12` (some centres unmarked) [Compound 25], the IC50 is 0.1 to 1 µM in test [1]; 0.1 to 1 µM in test [2]; 1 to 10 µM in test [3]; 0.1 to 1 µM in test [4]; no more than 0.1 µM in test [5] (GP2d, 1 h).
For the molecule `CC1(C)NCC[C@H]1Oc1nc(OC[C@@]23CCCN2C[C@H](F)C3)nc2c(F)c(-c3ccc(F)c4sc(N)nc34)c(C(F)(F)F)cc12` [Compound 27], the IC50 in test [1] was 0.1 to 1 µM; in test [2], greater than 10 µM; in test [3], 1 to 10 µM; in test [4] it was 1 to 10 µM; in test [5] (GP2d, 1 h) it was 0.1 to 1 µM.
As to `Nc1nc2c(-c3c(C(F)(F)F)cc4c(O[C@H]5CNCC5(F)F)nc(OC[C@@]56CCCN5C[C@H](F)C6)nc4c3F)ccc(F)c2s1` [Compound 28], the IC50 in test [1] is 1 to 10 µM; in test [2], greater than 10 µM; in test [3] it was greater than 10 µM; in test [4] it was 1 to 10 µM; in test [5] (read-out: pERK-Gp2D-1 hr), 0.1 to 1 µM.
In the case of `Nc1nc2c(-c3cc4nc(OC[C@@]56CCCN5C[C@H](F)C6)nc(O[C@H]5CNC[C@@H]5F)c4cc3C(F)(F)F)ccc(F)c2s1` [Compound 30], the IC50 in test [1] is 1 to 10 µM; in test [2] it was greater than 10 µM; in test [3], greater than 10 µM; in test [4], greater than 10 µM; in test [5] (GP2d, 1 h), greater than 1 µM.
As for `Nc1nc2c(-c3cc4nc(OC[C@@]56CCCN5C[C@H](F)C6)nc(O[C@H]5CNC[C@H]5F)c4cc3C(F)(F)F)ccc(F)c2s1` [Compound 31], the IC50 was 1 to 10 µM in test [1]; greater than 10 µM in test [2]; greater than 10 µM in test [3]; greater than 10 µM in test [4]; greater than 1 µM in test [5] (GP2d, 1 h).
For the molecule `Nc1nc2c(-c3ncc4c(O[C@@H]5CCNC5)nc(OC[C@@]56CCCN5C[C@H](F)C6)nc4c3F)c(F)cc(F)c2s1` [Compound 32], the IC50 in test [1] was greater than 10 µM; in test [2], greater than 10 µM; in test [3], greater than 10 µM; in test [4], greater than 10 µM; in test [5] (GP2d, 1 h), greater than 1 µM.
`Nc1nc2c(-c3c(C(F)(F)F)cc4c(O[C@H]5CNC[C@@H]5F)nc(OC[C@@]56CCCN5C[C@H](F)C6)nc4c3Cl)ccc(F)c2s1` [Compound 33]: the IC50 is 1 to 10 µM in test [1]; 1 to 10 µM in test [2]; greater than 10 µM in test [3]; 1 to 10 µM in test [4]; 0.1 to 1 µM in test [5] (GP2d, 1 h).
Consider `CC1(C)NCCC1Oc1nc(OC[C@@]23CCCN2C[C@H](F)C3)nc2c(F)c(-c3ccc(F)c4sc(N)c(C#N)c34)c(C(F)(F)F)cc12` (some centres unmarked) [Compound 34], for which the IC50 was 0.1 to 1 µM in test [1]; 0.1 to 1 µM in test [2]; 0.1 to 1 µM in test [3]; 0.1 to 1 µM in test [4]; no more than 0.1 µM in test [5] (GP2d, 1 h).
As to `C[C@H]1NCC[C@H]1Oc1nc(OC[C@@]23CCCN2C[C@H](F)C3)nc2cc(-c3ccc(F)c4sc(N)nc34)c(C(F)(F)F)cc12` [Compound 35], the IC50 in test [1] is 0.1 to 1 µM; in test [2], greater than 10 µM; in test [3], 1 to 10 µM; in test [4] it was 1 to 10 µM; in test [5] (GP2d, 1 h), 0.1 to 1 µM.
In the case of `Nc1nc2c(-c3c(C(F)(F)F)cc4c(OC5CC6CC[C@H]5N6)nc(OCC56CCCN5CCC6)nc4c3F)ccc(F)c2s1` (some centres unmarked) [Compound 36], the IC50 in test [1] was 0.1 to 1 µM; in test [2], greater than 10 µM; in test [3], greater than 10 µM; in test [4] it was 1 to 10 µM; in test [5] (GP2d, 1 h) it was greater than 1 µM.
For the molecule `N#Cc1c(N)sc2c(F)ccc(-c3cc4nc(OC[C@@]56CCCN5C[C@H](F)C6)nc(O[C@H]5CNC[C@@H]5F)c4cc3C(F)(F)F)c12` [Compound 46], the IC50 is 0.1 to 1 µM in test [1]; greater than 10 µM in test [2]; greater than 10 µM in test [3]; greater than 10 µM in test [4]; greater than 1 µM in test [5] (GP2d, 1 h).
For the molecule `C[C@H]1NCC[C@H]1Oc1nc(OC[C@@]23CCCN2C[C@H](F)C3)nc2c(F)c(-c3ccc(F)c4sc(N)c(C#N)c34)c(C(F)(F)F)cc12` [Compound 47, 2-amino-7-fluoro-4-(8-fluoro-2-(((2R,7aS)-2-fluorotetrahydro-1H-pyrrolizin-7a(5H)-yl)methoxy)-4-(((2R,3R)-2-methylpyrrolidin-3-yl)oxy)-6-(trifluoromethyl)quinazolin-7-yl)benzo[b]thiophene-3-carbonitrile], the IC50 in test [1] was no more than 0.1 µM; in test [2] it was greater than 10 µM; in test [3] it was 0.1 to 1 µM; in test [4], no more than 0.1 µM; in test [5] (GP2d, 1 h) it was no more than 0.1 µM.
In the case of `N#Cc1c(N)sc2c(F)ccc(-c3ccc4c(O[C@@H]5CCNC5)nc(OC[C@@]56CCCN5C[C@H](F)C6)nc4c3F)c12` [Compound 48], the IC50 is 0.1 to 1 µM in test [1]; 0.1 to 1 µM in test [2]; greater than 10 µM in test [3]; 1 to 10 µM in test [4]; 0.1 to 1 µM in test [5] (GP2d, 1 h).
As to `N#Cc1c(N)sc2c(F)ccc(-c3cc4nc(OC[C@@]56CCCN5C[C@H](F)C6)nc(O[C@H]5CNC[C@H]5F)c4cc3C(F)(F)F)c12` [Compound 49], the IC50 was 0.1 to 1 µM in test [1]; 0.1 to 1 µM in test [2]; 1 to 10 µM in test [3]; 1 to 10 µM in test [4]; no more than 0.1 µM in test [5] (GP2d, 1 h).
Turning to `N#Cc1c(N)sc2c(F)ccc(-c3c(C(F)(F)F)cc4c(O[C@@H]5CCN[C@@H]5CO)nc(OC[C@@]56CCCN5C[C@H](F)C6)nc4c3F)c12` [Compound 50], the IC50 is 0.1 to 1 µM in test [1]; 0.1 to 1 µM in test [2]; 0.1 to 1 µM in test [3]; 0.1 to 1 µM in test [4]; no more than 0.1 µM in test [5] (GP2d, 1 h).
As for `N#Cc1c(N)sc2c(F)ccc(-c3ncc4c(O[C@H]5CNC[C@H]5F)nc(OC[C@@]56CCCN5C[C@H](F)C6)nc4c3F)c12` [Compound 51], the IC50 was 1 to 10 µM in test [1]; 1 to 10 µM in test [2]; greater than 10 µM in test [3]; greater than 10 µM in test [4]; greater than 1 µM in test [5] (GP2d, 1 h).
For the molecule `Nc1nc2c(-c3c(C(F)(F)F)cc4c(O[C@H]5CN[C@H](CO)C5)nc(OCC56CCCN5C[C@H](F)C6)nc4c3F)ccc(F)c2s1` (some centres unmarked) [Compound 52], the IC50 is 0.1 to 1 µM in test [1]; 1 to 10 µM in test [2]; greater than 10 µM in test [3]; 1 to 10 µM in test [4]; 0.1 to 1 µM in test [5] (GP2d, 1 h).
On to `N#Cc1c(N)sc2c(F)ccc(-c3c(C(F)(F)F)cc4c(O[C@H]5CNC[C@@H]5F)nc(OC[C@@]56CCCN5C[C@H](F)C6)nc4c3F)c12` [Compound 53], for which the IC50 in test [1] was 0.1 to 1 µM; in test [2] it was 0.1 to 1 µM; in test [3] it was 1 to 10 µM; in test [4] it was 0.1 to 1 µM; in test [5] (GP2d, 1 h) it was no more than 0.1 µM.
As for `C[C@H]1C[C@H](Oc2nc(OC[C@@]34CCCN3C[C@H](F)C4)nc3c(F)c(-c4ccc(F)c5sc(N)c(C#N)c45)c(Cl)cc23)CN1` [Compound 54], the IC50 is 0.1 to 1 µM in test [1]; 0.1 to 1 µM in test [2]; 1 to 10 µM in test [3]; 0.1 to 1 µM in test [4]; 0.1 to 1 µM in test [5] (read-out: pERK-Gp2D-1 hr).

The values above are taken from patent US20250084079A1, “COMPOSITIONS AND METHODS FOR INHIBITION OF RAS” (TheRas, Inc., priority 2022, published 2025).
